From paper PMC7403104 (Antiviral Research, 2020) come the findings set out here.

Assay [1] deals with YFV polymerase (NS5 RdRp) (Yellow fever virus, UniProt P03314). The assay can be described thus: biochemical.
For assay [2], the system named is flaviviral polymerases (DENV3, TBEV, JEV, WNV, ZIKV, YFV). It is filed as biochemical, flaviviruses.
In assay [3] the test system is six flaviviral polymerases (NS5 proteins of DENV3, TBEV, JEV, WNV, ZIKV, YFV). It is filed as biochemical, flaviviruses.

The structures appear in SMILES notation.

Sequence of YFV polymerase (NS5 RdRp) (P03314 2507-3411 limits assumed): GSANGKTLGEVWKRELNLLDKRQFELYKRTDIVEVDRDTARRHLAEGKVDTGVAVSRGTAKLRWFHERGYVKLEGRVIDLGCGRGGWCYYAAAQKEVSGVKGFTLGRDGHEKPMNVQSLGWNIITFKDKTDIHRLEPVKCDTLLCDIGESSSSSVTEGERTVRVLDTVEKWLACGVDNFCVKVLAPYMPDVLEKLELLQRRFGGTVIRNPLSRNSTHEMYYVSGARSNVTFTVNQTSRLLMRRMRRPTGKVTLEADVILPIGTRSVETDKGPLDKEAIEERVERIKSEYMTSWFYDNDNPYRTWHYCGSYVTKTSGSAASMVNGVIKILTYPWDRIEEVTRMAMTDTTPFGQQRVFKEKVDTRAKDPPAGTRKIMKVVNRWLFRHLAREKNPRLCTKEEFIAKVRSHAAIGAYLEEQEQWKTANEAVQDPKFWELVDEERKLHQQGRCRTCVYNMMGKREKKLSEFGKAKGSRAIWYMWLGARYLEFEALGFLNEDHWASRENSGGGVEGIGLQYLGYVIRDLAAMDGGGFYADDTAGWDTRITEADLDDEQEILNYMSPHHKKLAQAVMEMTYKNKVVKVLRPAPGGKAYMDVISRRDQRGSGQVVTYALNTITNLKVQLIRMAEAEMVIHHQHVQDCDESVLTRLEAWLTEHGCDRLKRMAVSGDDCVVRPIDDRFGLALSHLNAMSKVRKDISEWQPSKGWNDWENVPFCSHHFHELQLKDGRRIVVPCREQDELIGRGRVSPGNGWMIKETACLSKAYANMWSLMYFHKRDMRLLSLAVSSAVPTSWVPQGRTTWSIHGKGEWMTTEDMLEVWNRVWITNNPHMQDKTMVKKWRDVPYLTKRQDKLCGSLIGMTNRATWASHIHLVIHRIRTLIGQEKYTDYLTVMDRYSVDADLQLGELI

As for `CCC(CC)COC(=O)[C@H](C)N[P@](=O)(OC[C@H]1O[C@@](C#N)(c2ccc3c(N)ncnn23)[C@H](O)[C@@H]1O)Oc1ccccc1` [remdesivir, Remdesivir], the concentration for half-maximal inhibition (IC50) is 260 ± 30 nM in assay [1] and 200 to 2200 nM in assay [2] (read-out: IC50 range, all the tested flaviviral polymerases). Further, in assay [2], the “IC50s range in words, flaviviral RdRps” value is recorded as “hundreds of nanomolar to single digit micromolar”. Moreover, the “incorporation into newly synthesized RNA chain / chain termination” value in assay [3] is “able to incorporate several (five) remdesivir molecules into the newly synthesized RNA chain and finish the primer elongation reaction”.
